The target in experiment [1] is T1, saccharase (porcine intestinal mucosa) (Sus scrofa, UniProt P56729).
T1 construct: prepared from porcine intestinal mucosa; from tissue; host or cells: porcine intestinal mucosa
The experiment is described as follows: Glucosidase inhibitory activity, saccharase (sucrose as substrate). It counts as biochemical. As to the method:
(§1) The method of assaying the glucosidase inhibitory activity.
(§2) The inhibitory activities against maltase or saccharase prepared from porcine intestinal mucosa [prepared in accordance with the procedure as described by B. Borgstrom and A. Dahlqvist in Acta Chem. Scand., 12, 1997-2006, (1958)], when maltose or sucrose is used as a substrate, were determined by adding, to 0.25 ml of a solution of an enzyme prepared by diluting suitably with 0.02M phosphate buffer (pH 6.8), 0.5 ml of an inhibitory substance to be tested (compound [I] or a pharmaceutically acceptable salt thereof) in the same buffer and 0.25 ml of 0.05M maltose or 0.05M sucrose as the substrate in the same buffer, allowing the mixture to react at 37° C. for 10 minutes, then adding 3 ml of Glucose B-Test Reagent (a glucose oxidase reagent for measurement of glucose, produced by Wako Pure Chemical Co., Japan), further warming the mixture at 37° C. for 20 minutes and measuring the absorbance of the colored reaction solution at 505 nm.

Experiment [2] addresses maltase (porcine intestinal mucosa). The experiment in a line: Glucosidase inhibitory activity, maltase (maltose as substrate). It counts as biochemical. To be noted: read-out: IC50 (maltase), 50% inhibition concentration, pH 6.8, 37° C., 10 minutes. As to the method:
as §1, §2

[3] abbreviates: read-out: IC50 (saccharase), 50% inhibition concentration, pH 6.8, 37° C., 10 minutes.

Where two headings read alike, the source gives them in different places.

T1 sequence (P56729 with tags, fused parts or gaps limits assumed): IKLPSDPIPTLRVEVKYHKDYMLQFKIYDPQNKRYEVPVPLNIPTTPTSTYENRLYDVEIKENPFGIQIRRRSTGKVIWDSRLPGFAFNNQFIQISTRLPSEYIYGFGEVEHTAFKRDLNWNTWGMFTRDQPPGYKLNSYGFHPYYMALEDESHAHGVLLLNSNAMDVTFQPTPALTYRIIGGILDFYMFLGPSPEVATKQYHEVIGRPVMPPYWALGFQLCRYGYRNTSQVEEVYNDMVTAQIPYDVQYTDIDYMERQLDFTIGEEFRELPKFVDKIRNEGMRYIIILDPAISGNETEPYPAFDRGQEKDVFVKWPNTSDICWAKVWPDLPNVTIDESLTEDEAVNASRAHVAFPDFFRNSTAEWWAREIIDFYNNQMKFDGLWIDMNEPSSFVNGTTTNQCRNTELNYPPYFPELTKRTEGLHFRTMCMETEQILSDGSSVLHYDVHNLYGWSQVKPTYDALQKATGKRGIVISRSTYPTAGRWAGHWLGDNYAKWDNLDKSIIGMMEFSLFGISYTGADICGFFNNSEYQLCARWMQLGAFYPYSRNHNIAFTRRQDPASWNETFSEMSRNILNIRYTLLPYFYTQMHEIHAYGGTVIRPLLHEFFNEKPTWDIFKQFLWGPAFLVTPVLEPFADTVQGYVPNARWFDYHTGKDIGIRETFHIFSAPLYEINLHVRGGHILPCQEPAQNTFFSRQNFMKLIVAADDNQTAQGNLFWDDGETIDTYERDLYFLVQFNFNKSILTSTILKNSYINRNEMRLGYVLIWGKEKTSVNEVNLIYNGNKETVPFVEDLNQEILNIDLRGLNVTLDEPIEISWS
T1 sequence (P56729 with tags, fused parts or gaps partner limits assumed): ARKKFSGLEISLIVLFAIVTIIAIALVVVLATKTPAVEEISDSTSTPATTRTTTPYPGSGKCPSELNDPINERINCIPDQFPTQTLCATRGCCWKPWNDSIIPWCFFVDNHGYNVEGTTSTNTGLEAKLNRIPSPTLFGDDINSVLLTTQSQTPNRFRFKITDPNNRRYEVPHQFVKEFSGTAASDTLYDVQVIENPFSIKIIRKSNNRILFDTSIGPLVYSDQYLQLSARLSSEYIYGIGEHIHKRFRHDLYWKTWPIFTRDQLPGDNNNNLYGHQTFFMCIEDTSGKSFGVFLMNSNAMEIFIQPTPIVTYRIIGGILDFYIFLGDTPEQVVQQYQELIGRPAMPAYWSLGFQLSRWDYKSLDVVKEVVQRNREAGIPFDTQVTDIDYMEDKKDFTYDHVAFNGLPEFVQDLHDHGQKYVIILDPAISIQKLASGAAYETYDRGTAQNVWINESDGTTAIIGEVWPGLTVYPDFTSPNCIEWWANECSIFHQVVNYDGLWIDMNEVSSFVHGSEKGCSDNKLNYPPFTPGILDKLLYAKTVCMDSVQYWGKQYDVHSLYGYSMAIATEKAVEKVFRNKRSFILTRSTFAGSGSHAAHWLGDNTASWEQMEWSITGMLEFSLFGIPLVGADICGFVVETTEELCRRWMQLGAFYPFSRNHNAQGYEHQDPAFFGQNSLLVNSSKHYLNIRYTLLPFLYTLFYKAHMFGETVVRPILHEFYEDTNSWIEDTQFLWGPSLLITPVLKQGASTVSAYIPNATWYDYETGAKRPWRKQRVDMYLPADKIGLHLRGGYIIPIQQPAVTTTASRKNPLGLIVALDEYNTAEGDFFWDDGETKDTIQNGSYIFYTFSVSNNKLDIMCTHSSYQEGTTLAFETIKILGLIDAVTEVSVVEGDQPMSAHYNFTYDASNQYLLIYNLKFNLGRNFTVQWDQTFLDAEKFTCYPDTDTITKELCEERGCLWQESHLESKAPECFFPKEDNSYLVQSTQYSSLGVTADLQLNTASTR

In the case of `C[C@H]1C[C@H](N)[C@H](O)[C@@H](O)[C@H]1N[C@H]1C[C@](O)(CO)[C@@H](O)[C@H](O)[C@H]1O` [Example 20, isomer (b), N-[(1S,2S)-(2,6/3,4)-4-amino-2,3-dihydroxy-6-methylcyclohexyl]valiolamine], in experiment [1] (pH 6.8, 37° C., 10 minutes), the IC50 worked out at 0.053 µM.
As for `CC1(C)O[C@H]2O[C@H]([C@H](O)CO)C(N[C@H]3C[C@](O)(CO)[C@@H](O)[C@H](O)[C@H]3O)[C@H]2O1` (some centres unmarked) [N-[2,3-O-isopropylidene-2,3-dihydroxy-5-(1,2-dihydroxyethyl)tetrahydrofuran-4-yl]valiolamine], the IC50 in experiment [1] (setting [3]) amounted to 37 µM.
Turning to `CCOC(=O)NC1CC(NC(=O)OCC)C(N[C@H]2C[C@](O)(CO)[C@@H](O)[C@H](O)[C@H]2O)C(O)C1O` (some centres unmarked) [Example 11, N-(2,4-Diethoxycarbonylamino-5,6-dihydroxycyclohexyl)valiolamine], the figures for the IC50 in experiment [2] and in experiment [1] (setting [3]) were 9 µM and 4.9 µM, respectively.
Consider `NC1CC(N)C(N[C@H]2C[C@H](CO)[C@@H](O)[C@H](O)[C@H]2O)C(O)C1O` (some centres unmarked) [Example 14, N-(2,4-Diamino-5,6-dihydroxycyclohexyl)validamine], for which the IC50 in experiment [1] (setting [3]) was found to be 0.88 µM.
For the compound `OC[C@H]1C[C@@H](N[C@H]2C[C@](O)(CO)[C@@H](O)[C@H](O)[C@H]2O)[C@H](O)[C@@H](O)[C@@H]1O` [Example 18, (1R,2S) isomer, N-[(1R,2S)-(2,4/3,5)-2,3,4-trihydroxy-5-hydroxymethylcyclohexyl]valiolamine], the IC50 in experiment [2] stood at 0.044 µM; in experiment [1] (pH 6.8, 37° C., 10 minutes), 0.048 µM.
The corresponding values for `CO[C@H]1O[C@H](CO)[C@@H](N[C@H]2C[C@H](CO)[C@@H](O)[C@H](O)[C@H]2O)[C@H](O)[C@H]1O` [Example 3, Glucopyranoside isomer, Methyl 4-[(1S,2S)-(2,4/3,5)-2,3,4-trihydroxy-5-hydroxymethylcyclohexyl]amino-4-deoxy-α-D-glucopyranoside] are 4.4 µM and 0.58 µM.
For `C[C@H]1CC(O)[C@H](O)[C@@H](O)[C@@H]1N[C@H]1C[C@](O)(CO)[C@@H](O)[C@H](O)[C@H]1O` (single isomer, unassigned) [Example 21, isomer (a)], in experiment [1] (setting [3]), the IC50 is 0.035 µM.
As for `CO[C@H]1O[C@H](CO)[C@H](N[C@H]2C[C@H](CO)[C@@H](O)[C@H](O)[C@H]2O)[C@H](O)[C@H]1O` [Example 3, Galactopyranoside isomer, Methyl 4-[(1S,2S)-(2,4/3,5)-2,3,4-trihydroxy-5-hydroxymethylcyclohexyl]amino-4-deoxy-α-D-galactopyranoside], the IC50 in experiment [1] (pH 6.8, 37° C., 10 minutes) stood at 1 µM.
For the compound `C[C@H]1O[C@H](O[C@H]2[C@H](O)[C@@H](O)C(O)O[C@@H]2CO)[C@H](O)[C@@H](O)[C@@H]1N[C@H]1C[C@](O)(CO)[C@@H](O)[C@H](O)[C@H]1O` (stereo partly drawn) [Example 28, 4-O-α-[4-[(1S)-(1,2,4,5(OH)/3,5(CH2 OH))-(2,3,4,5-Tetrahydroxy-5-(hydroxymethyl)cyclohexyl)amino]-4,6-dideoxy-D-glucopyranosyl]-D-glucopyranose], the IC50 in experiment [2] worked out at 0.12 µM; in experiment [1] (pH 6.8, 37° C., 10 minutes) it was 0.08 µM.
For the compound `CO[C@H]1O[C@H](CO)[C@@H](N[C@H]2C[C@](O)(CO)[C@@H](O)[C@H](O)[C@H]2O)[C@H](O)[C@H]1O` [Example 4, Glucopyranoside isomer, Methyl 4-[(1S,2S)-(2,4,5(OH)/3,5(CH2 OH))-2,3,4,5-tetrahydroxy-5-hydroxymethylcyclohexyl]amino-4-deoxy-α-D-glucopyranoside], the IC50 in experiment [2] came to 0.072 µM; in experiment [1] (pH 6.8, 37° C., 10 minutes) it was 0.08 µM.
`O=C(N[C@H]1C[C@H](CO)C(N[C@H]2C[C@H](CO)[C@@H](O)[C@H](O)[C@H]2O)[C@H](O)[C@H]1O)OCc1ccccc1` (stereo partly drawn) [Example 5, [(1S,2S)-(2,4/3,5)-2,3,4-Trihydroxy-5-hydroxymethylcyclohexyl][(2S)-(2,6/3,4)-4-benzyloxycarbonylamino-2,3-dihydroxy-6-hydroxy-methylcyclohexyl]amine] displayed an IC50 in experiment [1] (pH 6.8, 37° C., 10 minutes) of 0.7 µM.
Consider `CO[C@H]1O[C@H](C)[C@@H](N[C@H]2C[C@H](CO)[C@@H](O)[C@H](O)[C@H]2O)[C@H](O)[C@H]1O` [Example 1,6-deoxyglucopyranoside isomer, Methyl 4-[(1S,2S)-(2,4/3,5)-2,3,4-trihydroxy-5-hydroxymethylcyclohexyl]amino-4,6-dideoxy-α-D-glucopyranoside], for which the IC50 in experiment [2] is 1.8 µM; in experiment [1] (pH 6.8, 37° C., 10 minutes) it was 0.74 µM.
As for `CO[C@H]1O[C@H](C)[C@H](N[C@H]2C[C@H](CO)[C@@H](O)[C@H](O)[C@H]2O)[C@H](O)[C@H]1O` [Example 1,6-deoxygalactopyranoside isomer, Methyl 4-[(1S,2S)-(2,4/3,5)-2,3,4-trihydroxy-5-hydroxymethylcyclohexyl]amino-4,6-dideoxy-α-D-galactopyranoside], the IC50 in experiment [1] (pH 6.8, 37° C., 10 minutes) came out at 5.6 µM.
For `OC[C@H]1C[C@H](NC2[C@@H](O)C(O)O[C@H](CO)[C@H]2O)[C@H](O)[C@@H](O)[C@@H]1O` (some centres unmarked) [N-(2,3,5-trihydroxy-6-hydroxymethyltetrahydropyran-4-yl)validamine], the IC50 was 1.9 µM in experiment [2] and 0.17 µM in experiment [1] (setting [3]).
On to `NC1CC(N)C(N[C@H]2C[C@](O)(CO)[C@@H](O)[C@H](O)[C@H]2O)C(O)C1O` (single isomer, unassigned) [Example 12, Isomer D, N-(2,4-Diamino-5,6-dihydroxycyclohexyl)valiolamine], for which the IC50 is 1 µM in experiment [2] and 0.088 µM in experiment [1] (setting [3]).
For the compound `N[C@H]1C[C@H](CO)C(N[C@H]2C[C@H](CO)[C@@H](O)[C@H](O)[C@H]2O)[C@H](O)[C@H]1O` (single isomer, unassigned) [Example 6, first eluted isomer], the IC50 in experiment [2] was determined as 2.9 µM; in experiment [1] (setting [3]), 1.6 µM.
Regarding `OC[C@H]1C[C@H](N[C@H]2C[C@](O)(CO)[C@@H](O)[C@H](O)[C@H]2O)[C@H](O)[C@@H](O)[C@@H]1O` [Example 18, (1S,2S) isomer, N-[(1S,2S)-(2,4/3,5)-2,3,4-trihydroxy-5-hydroxymethylcyclohexyl]valiolamine], the IC50 in experiment [1] (pH 6.8, 37° C., 10 minutes) was found to be 5.6 µM.
Turning to `CO[C@H]1O[C@H](CO)[C@H](N[C@H]2C[C@](O)(CO)[C@@H](O)[C@H](O)[C@H]2O)[C@H](O)[C@H]1O` [Example 4, Galactopyranoside isomer, Methyl 4-[(1S,2S)-(2,4,5(OH)/3,5-(CH2 OH))-2,3,4,5-tetrahydroxy-5-hydroxymethylcyclohexyl]amino-4-deoxy-α-D-galactopyranoside], the IC50 in experiment [2] is 0.32 µM; in experiment [1] (pH 6.8, 37° C., 10 minutes), 0.62 µM.
Consider `C[C@H]1CC(O)[C@H](O)[C@@H](O)[C@@H]1N[C@H]1C[C@](O)(CO)[C@@H](O)[C@H](O)[C@H]1O` (single isomer, unassigned) [Example 21, isomer (b)], for which, in experiment [1] (setting [3]), the IC50 turned out to be 0.036 µM.
With `OC[C@H]1OC(O)[C@H](O)C(N[C@H]2C[C@](O)(CO)[C@@H](O)[C@H](O)[C@H]2O)[C@@H]1O` (some centres unmarked) [N-(2,3,5-trihydroxy-6-hydroxymethyltetrahydropyran-4-yl)valiolamine], the IC50 in experiment [2] came to 0.11 µM; in experiment [1] (setting [3]), 0.09 µM.
`CO[C@H]1O[C@H](C)[C@@H](N[C@H]2C=C(CO)[C@@H](O)[C@H](O)[C@H]2O)[C@H](O)[C@H]1O` [Reference Example 40,6-deoxyglucopyranoside isomer, Methyl 4-[(1S,6S)-(4,6/5)-4,5,6-trihydroxy-3-hydroxymethyl-2-cyclohexen-1-yl]amino-4,6-dideoxy-α-D-glucopyranoside]: the IC50 in experiment [1] (pH 6.8, 37° C., 10 minutes) turned out to be 0.7 µM.
On to `N[C@H]1C[C@H](CO)C(N[C@H]2C[C@](O)(CO)[C@@H](O)[C@H](O)[C@H]2O)[C@H](O)[C@H]1O` (single isomer, unassigned) [Example 8,4-amino derivative from the later eluted component of Example 7], for which the IC50 in experiment [2] was determined as 2.8 µM; in experiment [1] (setting [3]), 0.23 µM.
As for `CC1(O)CC(N)C(O)C(O)C1O` (centres unmarked) [compound 26, 7-Deoxyvaliolamine], the IC50 in experiment [1] (pH 6.8, 37° C., 10 minutes) stood at 24 µM.
As to `N[C@H]1C[C@H](CO)C(N[C@H]2C[C@H](CO)[C@@H](O)[C@H](O)[C@H]2O)[C@H](O)[C@H]1O` (single isomer, unassigned) [Example 6, later eluted isomer], the IC50 in experiment [1] (setting [3]) amounted to 78 µM.
`OCC1=C[C@H](NC2[C@@H](O)C(O)O[C@H](CO)[C@H]2O)[C@H](O)[C@@H](O)[C@@H]1O` (some centres unmarked) [N-(2,3,5-trihydroxy-6-hydroxymethyltetrahydropyran-4-yl)valienamine]: the IC50 came out at 31 µM in experiment [2] and 0.45 µM in experiment [1] (setting [3]).
In the case of `OC[C@H]1C[C@H](N[C@@H]2C[C@H](CO)[C@@H](O)[C@H](O)[C@H]2O)[C@H](O)[C@@H](O)[C@@H]1O` [Example 17, (1R,2S) isomer, N-[(1R,2S)-(2,4/3,5)-2,3,4-trihydroxy-5-hydroxymethylcyclohexyl]validamine], the IC50 stood at 2.2 µM in experiment [2] and 0.27 µM in experiment [1] (pH 6.8, 37° C., 10 minutes).
Consider `N[C@H]1C[C@H](CO)C(N[C@H]2C[C@](O)(CO)[C@@H](O)[C@H](O)[C@H]2O)[C@H](O)[C@H]1O` (single isomer, unassigned) [Example 8,4-amino derivative from the first eluted component of Example 7], for which the IC50 in experiment [2] was 3.3 µM; in experiment [1] (setting [3]), 0.25 µM.
`C[C@H]1O[C@H](O[C@H]2[C@H](O)[C@@H](O)[C@@H]3OC[C@H]2O3)[C@H](O)[C@@H](O)[C@@H]1N[C@H]1C[C@](O)(CO)[C@@H](O)[C@H](O)[C@H]1O` [Example 25, isomer (b)]: the IC50 in experiment [2] amounted to 0.13 µM; in experiment [1] (pH 6.8, 37° C., 10 minutes), 0.025 µM.
